Counter-ions that a name gives are not always drawn. Blank lines part the entries; values can stand above or below the compound they belong to.
Columns and labels:
[1] = Pharmacokinetics in male cynomolgus monkeys (co-crystal capsules, spray-dried dispersion); format: in vivo
Experimental: Two groups of male cynomolgus monkeys (n=3/group) were administered test articles in a 3-way crossover design as indicated in Table 2. The washout period between doses was 3-4 days. Test article capsules were prepared such that each capsule contained an equivalent of 25 mg of free base compound I-1. The organic stock solution of compound I-1 was prepared at a concentration of 5 mg/ml using TPGS/PEG400/PG, and was diluted with apple juice within 1 hour of dosing (PO) at 1 part stock solution to 3 parts apple juice.
FIGS. 11-14 provide graphs of the plasma concentrations obtained from administering the co-crystal formulations of compound I-1 to monkeys. And Table 3 provides pharmacokinetic (PK) data for the co-crystal formulations, including the average area under the curve (AUC) and percent bioavailability.
FIG. 19 provides PK data for one embodiment of the disclosed spray-dried formulation, and the organic/juice formulation.

[2] = Physical and chemical stability of salts of I-18, 1 week (XRPD, HPLC purity); format: physicochemical; conditions: for Area (%) of HPLC peak RRT 1.00: main peak; for Area (%) of HPLC peak RRT 1.17: peak = parent compound formed by hydrolysis; for Form change: XRPD; for Initial purity (area %): HPLC, before storage
Experimental: The physical and chemical stability of the K salt, Arginine salt, Choline salt and Tris salt were evaluated under conditions of 25° C./60% RH and 40° C./75% RH for 1 week. Each sample was added into 3 mL glass vials, sealed by parafilm with several holes, and kept under tested condition. After one week, samples was taken for XRPD and HPLC purity test.

[3] = 25° C./60% RH, 1 week, listed as tris salt
[4] = 40° C./75% RH, 1 week, listed as tris salt
[5] = 25° C./60% RH, 1 week, listed as potassium salt
[6] = 40° C./75% RH, 1 week, listed as potassium salt
[7] = Initial, listed as potassium salt
[8] = 25° C./60% RH, 1 week, listed as choline salt
[9] = 40° C./75% RH, 1 week, listed as choline salt
[10] = Initial, listed as choline salt

SMILES: CCO[C@H]1CC[C@H](n2cc(NC(=O)c3csc(-c4cn[nH]c4)n3)c(-c3nc(F)ccc3F)n2)CC1.O=C(O)C(O)C(O)C(=O)O [I-11, N-(3-(3,6-difluoropyridin-2-yl)-1-((1r,4r)-4-ethoxycyclohexyl)-1H-pyrazol-4-yl)-2-(1H-pyrazol-4-yl)thiazole-4-carboxamide hemi-tartrate salt]
% F (percent bioavailability) ([1]; n=3, capsule with equivalent of 25 mg free base compound I-1): 24.7%

SMILES: CCO[C@H]1CC[C@H](n2cc(NC(=O)c3csc(-c4cnn(C(C)OP(=O)(O)O)c4)n3)c(-c3nc(F)ccc3F)n2)CC1 (stereo partly drawn) [I-49, 1-(4-(4-((3-(3,6-difluoropyridin-2-yl)-1-((1r,4r)-4-ethoxycyclohexyl)-1H-pyrazol-4-yl)carbamoyl)thiazol-2-yl)-1H-pyrazol-1-yl)ethyl dihydrogen phosphate tris salt]
Area (%) of HPLC peak RRT 1.13 ([2]; 25° C./60% RH, 1 week): 0.06%
Area (%) of HPLC peak RRT 0.77 [2, 3]: <0.03%
Area (%) of HPLC peak RRT 1.45 [2, 3]: 0.35%
Area (%) of HPLC peak RRT 1.71 [2, 3]: 0.80%
Area (%) of HPLC peak RRT 1.73 [2, 3]: 0.55%
HPLC purity change [2, 3]: no HPLC purity decrease
Area (%) of HPLC peak RRT 1.00 [2, 3]: 96.61%
Area (%) of HPLC peak RRT 1.17 [2, 3]: 1.63%
Form change ([2]; 25° C./60% RH/1 week, listed as Tris salt): no form change and No
Area (%) of HPLC peak RRT 0.77 [2, 4]: 0.03%
Area (%) of HPLC peak RRT 1.45 [2, 4]: 0.47%
Area (%) of HPLC peak RRT 1.71 [2, 4]: 0.88%
Area (%) of HPLC peak RRT 1.73 [2, 4]: 0.84%
HPLC purity change [2, 4]: a purity decrease was observed
Area (%) of HPLC peak RRT 1.00 [2, 4]: 95.03%
Area (%) of HPLC peak RRT 1.17 [2, 4]: 2.69%
Form change ([2]; 40° C./75% RH/1 week, listed as Tris salt): no form change and No
Initial purity (area %) ([2]; listed as Tris salt): 96.06 area %
Area (%) of HPLC peak RRT 0.77 ([2]; Initial, listed as tris salt): <0.03%
Area (%) of HPLC peak RRT 1.13 ([2]; Initial, listed as tris salt): 0.07%
Area (%) of HPLC peak RRT 1.45 ([2]; Initial, listed as tris salt): 0.37%
Area (%) of HPLC peak RRT 1.71 ([2]; Initial, listed as tris salt): 0.86%
Area (%) of HPLC peak RRT 1.73 ([2]; Initial, listed as tris salt): 0.76%
Area (%) of HPLC peak RRT 1.00 ([2]; Initial, listed as tris salt): 96.06%
Area (%) of HPLC peak RRT 1.17 ([2]; Initial, listed as tris salt): 1.87%

SMILES: CCO[C@H]1CC[C@H](n2cc(NC(=O)c3csc(-c4cnn(C(C)OP(=O)(O)O)c4)n3)c(-c3nc(F)ccc3F)n2)CC1 (stereo partly drawn) [I-108, potassium 1-(4-(4-((3-(3,6-difluoropyridin-2-yl)-1-((1r,4r)-4-ethoxycyclohexyl)-1H-pyrazol-4-yl)carbamoyl)thiazol-2-yl)-1H-pyrazol-1-yl)ethyl hydrogen phosphate]
Area (%) of HPLC peak RRT 1.14 ([2]; 25° C./60% RH, 1 week): <0.04%
Area (%) of HPLC peak RRT 1.40 ([2]; 25° C./60% RH, 1 week): 0.25%
Area (%) of HPLC peak RRT 1.44 ([2]; 25° C./60% RH, 1 week): 0.30%
Area (%) of HPLC peak RRT 1.70 ([2]; 25° C./60% RH, 1 week): 0.27%
Area (%) of HPLC peak RRT 1.72 ([2]; 25° C./60% RH, 1 week): 0.78%
Area (%) of HPLC peak RRT 1.81 ([2]; 25° C./60% RH, 1 week): <0.04%
HPLC purity change ([2]; 25° C./60% RH, 1 week, listed as K salt): slight purity decrease
Area (%) of HPLC peak RRT 1.00 [2, 5]: 96.26%
Area (%) of HPLC peak RRT 1.17 [2, 5]: 2.14%
Form change ([2]; 25° C./60% RH/1 week, listed as K salt): no form change and No
Area (%) of HPLC peak RRT 1.14 ([2]; 40° C./75% RH, 1 week): 0.05%
Area (%) of HPLC peak RRT 1.40 ([2]; 40° C./75% RH, 1 week): 0.39%
Area (%) of HPLC peak RRT 1.44 ([2]; 40° C./75% RH, 1 week): 0.24%
Area (%) of HPLC peak RRT 1.70 ([2]; 40° C./75% RH, 1 week): 0.24%
Area (%) of HPLC peak RRT 1.72 ([2]; 40° C./75% RH, 1 week): 0.83%
Area (%) of HPLC peak RRT 1.81 ([2]; 40° C./75% RH, 1 week): 0.04%
HPLC purity change ([2]; 40° C./75% RH, 1 week, listed as K salt): slight purity decrease
Area (%) of HPLC peak RRT 1.00 [2, 6]: 96.40%
Area (%) of HPLC peak RRT 1.17 [2, 6]: 1.80%
Form change ([2]; 40° C./75% RH/1 week, listed as K salt): a form change was observed and Yes
Initial purity (area %) ([2]; listed as K salt): 97.27 area %
Area (%) of HPLC peak RRT 1.14 ([2]; Initial): <0.04%
Area (%) of HPLC peak RRT 1.40 ([2]; Initial): 0.23%
Area (%) of HPLC peak RRT 1.44 ([2]; Initial): 0.21%
Area (%) of HPLC peak RRT 1.70 ([2]; Initial): 0.18%
Area (%) of HPLC peak RRT 1.72 ([2]; Initial): 0.77%
Area (%) of HPLC peak RRT 1.81 ([2]; Initial): <0.04%
Area (%) of HPLC peak RRT 1.00 [2, 7]: 97.27%
Area (%) of HPLC peak RRT 1.17 [2, 7]: 1.33%

SMILES: CCO[C@H]1CC[C@H](n2cc(NC(=O)c3csc(-c4cnn(C(C)OP(=O)(O)O)c4)n3)c(-c3nc(F)ccc3F)n2)CC1 (stereo partly drawn) [I-111, 1-(4-(4-((3-(3,6-difluoropyridin-2-yl)-1-((1r,4r)-4-ethoxycyclohexyl)-1H-pyrazol-4-yl)carbamoyl)thiazol-2-yl)-1H-pyrazol-1-yl)ethyl dihydrogen phosphate choline salt]
Area (%) of HPLC peak RRT 0.77 [2, 8]: 0.04%
Area (%) of HPLC peak RRT 1.35 [2, 8]: 0.10%
Area (%) of HPLC peak RRT 1.45 [2, 8]: 0.07%
Area (%) of HPLC peak RRT 1.71 [2, 8]: 0.05%
Area (%) of HPLC peak RRT 1.73 [2, 8]: 0.46%
HPLC purity change [2, 8]: no HPLC purity decrease
Area (%) of HPLC peak RRT 1.00 [2, 8]: 98.66%
Area (%) of HPLC peak RRT 1.17 [2, 8]: 0.58%
Purity/Initial purity (%) ([2]; 25° C./60% RH/1 week): 100.0%
Form change ([2]; 25° C./60% RH/1 week, listed as Choline salt): no form change and No
Area (%) of HPLC peak RRT 0.77 [2, 9]: 0.04%
Area (%) of HPLC peak RRT 1.35 [2, 9]: 0.14%
Area (%) of HPLC peak RRT 1.45 [2, 9]: 0.11%
Area (%) of HPLC peak RRT 1.71 [2, 9]: 0.08%
Area (%) of HPLC peak RRT 1.73 [2, 9]: 0.46%
HPLC purity change [2, 9]: a purity decrease was observed
Area (%) of HPLC peak RRT 1.00 [2, 9]: 97.81%
Area (%) of HPLC peak RRT 1.17 [2, 9]: 1.31%
Form change ([2]; 40° C./75% RH/1 week, listed as Choline salt): no form change and No
Initial purity (area %) ([2]; listed as Choline salt): 98.70 area %
Area (%) of HPLC peak RRT 1.35 ([2]; Initial): <0.03%
Area (%) of HPLC peak RRT 0.77 [2, 10]: 0.03%
Area (%) of HPLC peak RRT 1.13 [2, 10]: 0.06%
Area (%) of HPLC peak RRT 1.45 [2, 10]: 0.06%
Area (%) of HPLC peak RRT 1.71 [2, 10]: 0.06%
Area (%) of HPLC peak RRT 1.73 [2, 10]: 0.33%
Area (%) of HPLC peak RRT 1.00 [2, 10]: 98.70%
Area (%) of HPLC peak RRT 1.17 [2, 10]: 0.75%

Further lines, results first:

bioavailability ([1]; cynomolgus monkey, plasma, po, n=3, capsule with equivalent of 25 mg free base compound I-1, read-out: % F (percent bioavailability)): 7.9%
AUC(0-t) ([1]; cynomolgus monkey, po, n=3, capsule with equivalent of 25 mg free base compound I-1, plasma, normalized to 5 mg/kg of compound I-1, read-out: Average AUC0-24 h ± SD (5 mg/kg basis)): 921 ± 446 ng·h/mL
SMILES: CCO[C@H]1CC[C@H](n2cc(NC(=O)c3csc(-c4cn[nH]c4)n3)c(-c3nc(F)ccc3F)n2)CC1 [I-104, N-(3-(3,6-difluoropyridin-2-yl)-1-((1r,4r)-4-ethoxycyclohexyl)-1H-pyrazol-4-yl)-2-(1H-pyrazol-4-yl)thiazole-4-carboxamide phosphate]

% F (percent bioavailability) ([1]; n=3, capsule with equivalent of 25 mg free base compound I-1, listed as Gentisate cocystal): 9.8%
SMILES: CCO[C@H]1CC[C@H](n2cc(NC(=O)c3csc(-c4cn[nH]c4)n3)c(-c3nc(F)ccc3F)n2)CC1 [I-105, N-(3-(3,6-difluoropyridin-2-yl)-1-((1r,4r)-4-ethoxycyclohexyl)-1H-pyrazol-4-yl)-2-(1H-pyrazol-4-yl)thiazole-4-carboxamide gentisate]

% F (percent bioavailability) ([1]; n=3, capsule with equivalent of 25 mg free base compound I-1, listed as Succinate co-crystal): 12.7%
SMILES: CCO[C@H]1CC[C@H](n2cc(NC(=O)c3csc(-c4cn[nH]c4)n3)c(-c3nc(F)ccc3F)n2)CC1 [I-106, N-(3-(3,6-difluoropyridin-2-yl)-1-((1r,4r)-4-ethoxycyclohexyl)-1H-pyrazol-4-yl)-2-(1H-pyrazol-4-yl)thiazole-4-carboxamide succinate]
